Type: physicochemical
Conditions: pH 7.4

In the case of `N[C@@H](Cc1c[nH]c2ccccc12)C(=O)O` [L-Trp, L-tryptophan], the “Solubility in the assay buffer” value is reported as “low solubility”.
